The assay addresses T1, human GnRH receptor (Homo sapiens, UniProt P30968).
T1 construct: expressed in transfected cells; host or cells: HEK 293 (hGnRH-R/293, from Dr. Stuart Sealfon)
T1 sequence (P30968 1-328): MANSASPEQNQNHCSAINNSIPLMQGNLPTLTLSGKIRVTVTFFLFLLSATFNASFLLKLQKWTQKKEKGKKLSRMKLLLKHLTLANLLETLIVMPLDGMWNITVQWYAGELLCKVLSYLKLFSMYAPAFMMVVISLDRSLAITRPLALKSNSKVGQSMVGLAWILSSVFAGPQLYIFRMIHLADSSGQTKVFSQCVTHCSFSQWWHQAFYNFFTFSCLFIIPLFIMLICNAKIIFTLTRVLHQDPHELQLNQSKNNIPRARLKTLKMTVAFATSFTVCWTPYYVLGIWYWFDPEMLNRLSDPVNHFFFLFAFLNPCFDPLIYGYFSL
The assay can be described thus: Radioligand binding, 125I-GnRH-A displacement, membranes of HEK 293 cells with human GnRH receptor. The method, boiled down:
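After filtration and PBS washes, bound radioactivity was counted by scintillation and IC50 derived. Identical conditions applied for non-human receptors.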

Where [1] appears, read: 1 uM, read-out: % Inhib. @ 1 uM hGnRH.
[2] abbreviates: 1 h, repeat of % Inhib. at 1 uM, read-out: Repeats @ 1 uM hGnRH.

Read-outs that look alike come from different tables or passages of the source.

Take `COC(=O)CCCCCNC(=O)c1ccc(Cc2cc3c(cc2C)C(C)(C)CCC3(C)C)o1` [drawing 1059]: the inhibition at 1 µM under setting [1] was 85% and the inhibition at 1 µM under setting [2] turned out to be 85%.

With `Cc1cc2c(cc1Cc1ccc(C(=O)NCc3nc4ccccc4[nH]3)o1)C(C)(C)CCC2(C)C` [drawing 1060], the “% Inhib. @ 1 uM hGnRH” value (1 uM) turned out to be 101%. Further, the “Repeats @ 1 uM hGnRH” value (repeat of % Inhib. at 1 uM) turned out to be 99.

With `COc1cc(CCNC(=O)c2ccc(Cc3cc4c(cc3C)C(C)(C)CCC4(C)C)o2)cc(OC)c1O` [drawing 1061], the inhibition at 1 µM stood at 44% under setting [1] and 49% under setting [2].

`Cc1cc2c(cc1Cc1ccc(C(=O)NCC3CCN(C(=N)N)CC3)o1)C(C)(C)CCC2(C)C` [drawing 1063]: the inhibition at 1 µM was determined as 26% under setting [1] and 87% under setting [2].

`Cc1cc2c(cc1Cc1ccc(C(=O)NCC3CCN(c4ccnc(Cl)n4)CC3)o1)C(C)(C)CCC2(C)C` [drawing 1064]: the inhibition at 1 µM came to 79% under setting [1] and 91% under setting [2].

Regarding `Cc1cc2c(cc1Cc1ccc(C(=O)NCc3cccnc3)o1)C(C)(C)CCC2(C)C` [drawing 1067], the inhibition at 1 µM runs as follows: under setting [1], 69%; under setting [2], 74%.

With `Cc1cc2c(cc1Cc1ccc(C(=O)NCCOCCO)o1)C(C)(C)CCC2(C)C` [drawing 1068], the inhibition at 1 µM under setting [1] was 67% and the inhibition at 1 µM under setting [2] amounted to 69%.

Take `Cc1cc2c(cc1Cc1ccc(C(=O)NCc3ccccc3)o1)C(C)(C)CCC2(C)C` [drawing 1070]: the inhibition at 1 µM reads like this: under setting [1], 82%; under setting [2], 85%.

`Cc1cc2c(cc1Cc1ccc(C(=O)NC(c3ccccc3)c3ccccc3)o1)C(C)(C)CCC2(C)C` [drawing 1071]: the “% Inhib. @ 1 uM hGnRH” value (1 uM) is −6%. Further, for the setting “repeat of % Inhib. at 1 uM”, the “Repeats @ 1 uM hGnRH” value was found to be 2.

Consider `Cc1cc2c(cc1Cc1ccc(C(=O)NC(c3ccccc3)C(O)c3ccccc3)o1)C(C)(C)CCC2(C)C` (stereo not drawn) [drawing 1072], for which the “% Inhib. @ 1 uM hGnRH” value (1 uM) is 56%. For the same compound, the “Repeats @ 1 uM hGnRH” value (repeat of % Inhib. at 1 uM) is recorded as 57.

With `Cc1cc2c(cc1Cc1ccc(C(=O)NC(c3ccccc3)C(O)c3ccccc3)o1)C(C)(C)CCC2(C)C` (stereo not drawn) [drawing 1073], the “% Inhib. @ 1 uM hGnRH” value (1 uM) is on record as −11%. Further, where the note is “repeat of % Inhib. at 1 uM”, the “Repeats @ 1 uM hGnRH” value is recorded as −8.

For `Cc1cc2c(cc1Cc1ccc(C(=O)NC(c3ccccc3)c3ccccc3)o1)C(C)(C)CCC2(C)C` [drawing 1077], the “% Inhib. @ 1 uM hGnRH” value (1 uM) is −7%. The “Repeats @ 1 uM hGnRH” value (repeat of % Inhib. at 1 uM) is on record as −7.

`COc1ccccc1CNC(=O)c1ccc(Cc2cc3c(cc2C)C(C)(C)CCC3(C)C)o1` [drawing 1078]: the inhibition at 1 µM stood at 86% under setting [1] and 88% under setting [2].

On to `Cc1cc2c(cc1Cc1ccc(C(=O)NCCc3ccccc3)o1)C(C)(C)CCC2(C)C` [drawing 1079], for which the inhibition at 1 µM is 59% under setting [1] and 60% under setting [2].

On to `Cc1cc2c(cc1Cc1ccc(C(=O)NCCNc3ccccc3)o1)C(C)(C)CCC2(C)C` [drawing 1080], for which the inhibition at 1 µM runs as follows: under setting [1], 70%; under setting [2], 72%.

In the case of `Cc1cc2c(cc1Cc1ccc(C(=O)NCc3ccco3)o1)C(C)(C)CCC2(C)C` [drawing 1089], the inhibition at 1 µM under setting [1] is 79% and the inhibition at 1 µM under setting [2] is 82%.

On to `Cc1cc2c(cc1Cc1ccc(C(=O)NCc3ccccc3F)o1)C(C)(C)CCC2(C)C` [drawing 1090], for which the inhibition at 1 µM is, setting by setting: under setting [1], 81%; under setting [2], 89%.

Turning to `Cc1cc2c(cc1Cc1ccc(C(=O)NCc3ccc(Cl)cc3)o1)C(C)(C)CCC2(C)C` [drawing 1091], the inhibition at 1 µM under setting [1] came to 68% and the inhibition at 1 µM under setting [2] is 68%.

Regarding `Cc1cc2c(cc1Cc1ccc(C(=O)N3CCN(c4ccccc4)CC3)o1)C(C)(C)CCC2(C)C` [drawing 1092], the “% Inhib. @ 1 uM hGnRH” value (1 uM) was −1%. Further, the inhibition at 1 µM under setting [2] stood at 6%.

On to `COc1cccc(CNC(=O)c2ccc(Cc3cc4c(cc3C)C(C)(C)CCC4(C)C)o2)c1OC` [drawing 1093], for which the inhibition at 1 µM reads like this: under setting [1], 76%; under setting [2], 83%.

On to `COc1cc(OC)c(CNC(=O)c2ccc(Cc3cc4c(cc3C)C(C)(C)CCC4(C)C)o2)c(OC)c1` [drawing 1094], for which the inhibition at 1 µM is -10% under setting [1] and 13% under setting [2].

Consider `COc1ccc(CNC(=O)c2ccc(Cc3cc4c(cc3C)C(C)(C)CCC4(C)C)o2)cc1OC` [drawing 1095], for which the inhibition at 1 µM was 69% under setting [1] and 75% under setting [2].

For `CCOc1ccccc1CNC(=O)c1ccc(Cc2cc3c(cc2C)C(C)(C)CCC3(C)C)o1` [drawing 1096], the inhibition at 1 µM under setting [1] came out at 48% and the inhibition at 1 µM under setting [2] came out at 55%.

Regarding `Cc1ccccc1CNC(=O)c1ccc(Cc2cc3c(cc2C)C(C)(C)CCC3(C)C)o1` [drawing 1097], the inhibition at 1 µM came out at 84% under setting [1] and 86% under setting [2].

With `COc1ccc(CNC(=O)c2ccc(Cc3cc4c(cc3C)C(C)(C)CCC4(C)C)o2)cc1` [drawing 1098], the inhibition at 1 µM is 89% under setting [1] and 92% under setting [2].

Regarding `Cc1cc2c(cc1Cc1ccc(C(=O)NCc3cccs3)o1)C(C)(C)CCC2(C)C` [drawing 1099], the inhibition at 1 µM is, setting by setting: under setting [1], 82%; under setting [2], 85%.

For the compound `Cc1cc2c(cc1Cc1ccc(C(=O)NCc3cccc(Cl)c3Cl)o1)C(C)(C)CCC2(C)C` [drawing 1102], the inhibition at 1 µM was determined as 62% under setting [1] and 69% under setting [2].

Take `Cc1cc2c(cc1Cc1ccc(C(=O)NCc3ccccc3Cl)o1)C(C)(C)CCC2(C)C` [drawing 1103]: the inhibition at 1 µM under setting [1] came out at 77% and the inhibition at 1 µM under setting [2] was determined as 84%.

In the case of `Cc1cc2c(cc1Cc1ccc(C(=O)NCCc3ccccc3Cl)o1)C(C)(C)CCC2(C)C` [drawing 1104], the inhibition at 1 µM is, setting by setting: under setting [1], 55%; under setting [2], 63%.

For the compound `Cc1cc2c(cc1Cc1ccc(C(=O)N(CCCO)Cc3ccccn3)o1)C(C)(C)CCC2(C)C` [drawing 1107], the inhibition at 1 µM is -4% under setting [1] and 0% under setting [2].

Turning to `COc1ccccc1CCNC(=O)c1ccc(Cc2cc3c(cc2C)C(C)(C)CCC3(C)C)o1` [drawing 1114], the inhibition at 1 µM is 61% under setting [1] and 70% under setting [2].

As for `Cc1cc2c(cc1Cc1ccc(C(=O)NC(CO)Cc3ccccc3)o1)C(C)(C)CCC2(C)C` (stereo not drawn) [drawing 1117], for the setting “1 uM”, the “% Inhib. @ 1 uM hGnRH” value was 72%. Besides, where the note is “repeat of % Inhib. at 1 uM”, the “Repeats @ 1 uM hGnRH” value is given as 72.

As to `Cc1cc2c(cc1Cc1ccc(C(=O)NCc3cccc4ccccc34)o1)C(C)(C)CCC2(C)C` [drawing 1120], the inhibition at 1 µM was 61% under setting [1] and 71% under setting [2].

As for `Cc1cc2c(cc1Cc1ccc(C(=O)N3CCN(c4ccccc4)CC3)o1)C(C)(C)CCC2(C)C` [drawing 1121], under “1 uM”, the “% Inhib. @ 1 uM hGnRH” value is reported as −6%. Also, the “Repeats @ 1 uM hGnRH” value (repeat of % Inhib. at 1 uM) is on record as 6.

In the case of `Cc1cc2c(cc1Cc1ccc(C(=O)N3CCN(c4ncccn4)CC3)o1)C(C)(C)CCC2(C)C` [drawing 1124], the inhibition at 1 µM by setting is: under setting [1], -2%; under setting [2], 3%.

Regarding `Cc1cc2c(cc1Cc1ccc(C(=O)NC3CCCc4ccccc43)o1)C(C)(C)CCC2(C)C` (stereo not drawn) [drawing 1127], the inhibition at 1 µM under setting [1] was found to be 14% and the inhibition at 1 µM under setting [2] amounted to 27%.

Take `Cc1cc2c(cc1Cc1ccc(C(=O)NC3CCc4ccccc43)o1)C(C)(C)CCC2(C)C` (stereo not drawn) [drawing 1129]: the inhibition at 1 µM by setting is: under setting [1], 38%; under setting [2], 45%.

For the compound `Cc1cc2c(cc1Cc1ccc(C(=O)NC(C)CCc3ccccc3)o1)C(C)(C)CCC2(C)C` (stereo not drawn) [drawing 1130], the inhibition at 1 µM runs as follows: under setting [1], 52%; under setting [2], 52%.

As to `Cc1cc2c(cc1Cc1ccc(C(=O)NCCCN3CCCC3=O)o1)C(C)(C)CCC2(C)C` [drawing 1131], the inhibition at 1 µM is, setting by setting: under setting [1], 68%; under setting [2], 71%.

Consider `Cc1cc2c(cc1Cc1ccc(C(=O)NCc3ccc(Cl)cc3Cl)o1)C(C)(C)CCC2(C)C` [drawing 1133], for which the inhibition at 1 µM runs as follows: under setting [1], 53%; under setting [2], 64%.

In the case of `Cc1cc2c(cc1Cc1ccc(C(=O)NCc3ccc(F)cc3)o1)C(C)(C)CCC2(C)C` [drawing 1135], the inhibition at 1 µM is, setting by setting: under setting [1], 69%; under setting [2], 71%.

For `Cc1cc2c(cc1Cc1ccc(C(=O)NCc3cccc(Cl)c3)o1)C(C)(C)CCC2(C)C` [drawing 1136], the inhibition at 1 µM stood at 78% under setting [1] and 84% under setting [2].

`Cc1cc2c(cc1Cc1ccc(C(=O)NC(CO)Cc3ccccc3)o1)C(C)(C)CCC2(C)C` (stereo not drawn) [drawing 1137]: the “% Inhib. @ 1 uM hGnRH” value (1 uM) is listed as 17%. Besides, the “Repeats @ 1 uM hGnRH” value (repeat of % Inhib. at 1 uM) is reported as 20.

In the case of `Cc1cc2c(cc1Cc1ccc(C(=O)NC(C)c3ccccc3)o1)C(C)(C)CCC2(C)C` (stereo not drawn) [drawing 1138], the inhibition at 1 µM runs as follows: under setting [1], 53%; under setting [2], 58%.

Consider `Cc1cc2c(cc1Cc1ccc(C(=O)NCc3ccc(C(C)(C)C)cc3)o1)C(C)(C)CCC2(C)C` [drawing 1140], for which the inhibition at 1 µM by setting is: under setting [1], -14%; under setting [2], -6%.

As to `COc1cccc(CCNC(=O)c2ccc(Cc3cc4c(cc3C)C(C)(C)CCC4(C)C)o2)c1OC` [drawing 1147], the inhibition at 1 µM turned out to be 58% under setting [1] and 63% under setting [2].

As for `COc1cc(CCNC(=O)c2ccc(Cc3cc4c(cc3C)C(C)(C)CCC4(C)C)o2)cc(OC)c1` [drawing 1148], the inhibition at 1 µM by setting is: under setting [1], 44%; under setting [2], 48%.

Turning to `Cc1cc2c(cc1Cc1ccc(C(=O)NC3CC3)o1)C(C)(C)CCC2(C)C` [drawing 1149], the inhibition at 1 µM is 49% under setting [1] and 58% under setting [2].

Source of the values: patent publication US7101878B1 (Agouron Pharmaceuticals, Inc., priority 1998, dated 2006).
